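Compound exposure: 48 hours, 5 concentrations, 96-well plates. GI50 = concentration required for 50% inhibition of growth.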 Activity calls are given as the source filed them. Rule as the data show it: active = GI50 up to about 1.1 µM and inactive = higher.
Legend:
Assay in all cases: NCI tumour cell line growth inhibition, 48 h
SN12C = system: SN12C
TK-10 = system: TK-10
T47D = system: T47D
NCI-H522 = system: NCI-H522
OVCAR-3 = system: OVCAR-3
SNB-75 = system: SNB-75
NCI-H23 = system: NCI-H23
SK-MEL-5 = system: SK-MEL-5
HL-60 = system: HL-60
HT-29 = system: HT-29
M14 = system: M14
MDA-MB-231 = system: MDA-MB-231
NCI/ADR-RES = system: NCI/ADR-RES
KM12 = system: KM12
IGROV-1 = system: IGROV-1
Malme-3M = system: Malme-3M
HCC 2998 = system: HCC 2998
ACHN = system: ACHN
PC-3 = system: PC-3

Structure (SMILES) | GI50 (SN12C) | GI50 (TK-10) | GI50 (T47D) | GI50 (NCI-H522) | GI50 (OVCAR-3) | GI50 (SNB-75) | GI50 (NCI-H23) | GI50 (SK-MEL-5) | GI50 (HL-60) | GI50 (HT-29) | GI50 (M14) | GI50 (MDA-MB-231) | GI50 (NCI/ADR-RES) | GI50 (KM12) | GI50 (IGROV-1) | GI50 (Malme-3M) | GI50 (HCC 2998) | GI50 (ACHN) | GI50 (PC-3)
O=C(CSCC(=O)N/N=C\c1ccc(O)c(O)c1O)N/N=C\c1ccc(O)c(O)c1O | 21.2 µM (inactive) | 24 µM (inactive) | 18.7 µM (inactive) | 19.1 µM (inactive) | 3.38 µM (inactive) | 2.11 µM (inactive) | 1.69 µM (inactive) | 18.5 µM (inactive) | 15.8 µM (inactive) | 11.6 µM (inactive) | 6.31 µM (inactive) | 16.6 µM (inactive) | 1.54 µM (inactive) | 18.3 µM (inactive) | 19.8 µM (inactive) | 22.6 µM (inactive) | 14.7 µM (inactive) | 5.87 µM (inactive) | –
Cn1c(=O)c2c(nc3n(Cc4ccccc4)c(=O)c(NCCCBr)cn23)n(C)c1=O | > 100 µM (inactive) | 38.5 µM (inactive) | > 100 µM (inactive) | 54.3 µM (inactive) | > 100 µM (inactive) | 24.8 µM (inactive) | > 100 µM (inactive) | > 100 µM (inactive) | > 100 µM (inactive) | > 100 µM (inactive) | > 100 µM (inactive) | 64.9 µM (inactive) | > 100 µM (inactive) | > 100 µM (inactive) | 46.7 µM (inactive) | – | > 100 µM (inactive) | 32.6 µM (inactive) | > 100 µM (inactive)
CN(C)c1nc(N)nc(CCl)n1 | 43.4 µM (inactive) | 72.8 µM (inactive) | 60.4 µM (inactive) | 10.9 µM (inactive) | 17.5 µM (inactive) | 0.912 µM (active) | 24.5 µM (inactive) | 29.5 µM (inactive) | 19.1 µM (inactive) | 41.1 µM (inactive) | 28.1 µM (inactive) | 27.9 µM (inactive) | 22 µM (inactive) | 28.6 µM (inactive) | 13.4 µM (inactive) | – | 45.6 µM (inactive) | 15.8 µM (inactive) | 74.8 µM (inactive)
Cc1ccccc1/C=N/C12CC3CC(CC(C3)C1)C2 | > 100 µM (inactive) | > 100 µM (inactive) | – | > 100 µM (inactive) | > 100 µM (inactive) | > 100 µM (inactive) | > 100 µM (inactive) | > 100 µM (inactive) | > 100 µM (inactive) | > 100 µM (inactive) | > 100 µM (inactive) | – | – | > 100 µM (inactive) | > 100 µM (inactive) | > 100 µM (inactive) | > 100 µM (inactive) | > 100 µM (inactive) | –
CC1(C)COC(c2cccc(C3=NC(C)(C)CO3)c2)=N1 | – | > 100 µM (inactive) | 3.75 µM (inactive) | – | 0.0375 µM (active) | – | > 100 µM (inactive) | > 100 µM (inactive) | – | > 100 µM (inactive) | > 100 µM (inactive) | > 100 µM (inactive) | > 100 µM (inactive) | > 100 µM (inactive) | > 100 µM (inactive) | > 100 µM (inactive) | > 100 µM (inactive) | > 100 µM (inactive) | > 100 µM (inactive)
COC(=O)[C@@]12C(=O)CCC(=O)C1C1C(=CC2C)O[C@@H]2OC3(CCCCC3)O[C@H]12 (some centres not stated) | > 100 µM (inactive) | > 100 µM (inactive) | – | 18.6 µM (inactive) | 34.8 µM (inactive) | > 85.1 µM (inactive) | > 72.4 µM (inactive) | > 100 µM (inactive) | 25.8 µM (inactive) | 47.6 µM (inactive) | > 100 µM (inactive) | – | – | 64.1 µM (inactive) | > 94.6 µM (inactive) | > 100 µM (inactive) | > 100 µM (inactive) | > 55.1 µM (inactive) | –
CCCOC(=O)C1CCC(=O)N1C(=O)C(Cl)Cl (configuration not stated) | > 100 µM (inactive) | > 100 µM (inactive) | – | > 100 µM (inactive) | > 100 µM (inactive) | 59 µM (inactive) | > 100 µM (inactive) | > 100 µM (inactive) | > 100 µM (inactive) | > 100 µM (inactive) | > 100 µM (inactive) | – | – | > 100 µM (inactive) | > 100 µM (inactive) | > 100 µM (inactive) | > 100 µM (inactive) | > 100 µM (inactive) | –
CC(C)N(C(=O)C12C3C4C5(C#N)C3C1(I)C5C42I)C(C)C (configuration not stated) | > 68.2 µM (inactive) | > 100 µM (inactive) | – | > 100 µM (inactive) | > 100 µM (inactive) | > 70.3 µM (inactive) | > 100 µM (inactive) | > 100 µM (inactive) | > 47.4 µM (inactive) | > 73.8 µM (inactive) | > 100 µM (inactive) | – | – | > 100 µM (inactive) | > 100 µM (inactive) | > 100 µM (inactive) | > 100 µM (inactive) | > 100 µM (inactive) | –
O=C(O)CCC(N/C=C1/N=C(c2ccccc2)OC1=O)C(=O)O (configuration not stated) | > 100 µM (inactive) | > 100 µM (inactive) | – | > 100 µM (inactive) | > 100 µM (inactive) | > 100 µM (inactive) | > 100 µM (inactive) | > 100 µM (inactive) | 10 µM (inactive) | > 100 µM (inactive) | > 100 µM (inactive) | – | – | > 100 µM (inactive) | > 100 µM (inactive) | > 100 µM (inactive) | > 100 µM (inactive) | > 100 µM (inactive) | –
CCOC(=O)C12C(C(=O)OC)=C(C)N(NC(=O)Nc3ccccc3)C1(N)N(NC(=O)Nc1ccccc1)C(C)=C2C(=O)OC (configuration not stated) | > 61.5 µM (inactive) | 36.1 µM (inactive) | – | 20.9 µM (inactive) | 22.9 µM (inactive) | 33.7 µM (inactive) | 37.4 µM (inactive) | 19.9 µM (inactive) | 23.6 µM (inactive) | 24.5 µM (inactive) | 21.2 µM (inactive) | – | – | 19.2 µM (inactive) | 41.2 µM (inactive) | 21.6 µM (inactive) | 25.2 µM (inactive) | 34.1 µM (inactive) | –
CCOC(=O)c1nc2ccc(C(F)(F)F)cc2nc1Nc1ccc(OC)cc1 | – | > 100 µM (inactive) | > 100 µM (inactive) | 36.5 µM (inactive) | 27.7 µM (inactive) | 93.5 µM (inactive) | 49.1 µM (inactive) | 54.7 µM (inactive) | > 100 µM (inactive) | > 100 µM (inactive) | 84.1 µM (inactive) | 17.7 µM (inactive) | 63.2 µM (inactive) | > 100 µM (inactive) | 36.6 µM (inactive) | > 100 µM (inactive) | > 100 µM (inactive) | 55 µM (inactive) | 49.7 µM (inactive)
Cc1ccccc1SC(/C=C/NNC1=NN=C(c2ccccc2)C(c2ccccc2)N1)c1ccccc1 (configuration not stated) | 61.2 µM (inactive) | 17.8 µM (inactive) | – | 33.8 µM (inactive) | 13.7 µM (inactive) | 5.68 µM (inactive) | 17.5 µM (inactive) | 26.1 µM (inactive) | > 10 µM (inactive) | 29.8 µM (inactive) | 19.1 µM (inactive) | – | – | 28.4 µM (inactive) | 27.4 µM (inactive) | 22.4 µM (inactive) | 40.6 µM (inactive) | 15.4 µM (inactive) | –

Source: ChEMBL document CHEMBL1201862, “PubChem BioAssay data set” (2004)
